Laboratory results published in PMC10328743, “5-Nitro-3-(2-(4-phenylthiazol-2-yl)hydrazineylidene)indolin-2-one derivatives inhibit HIV-1 replication by a multitarget mechanism of action” (Frontiers in Cellular and Infection Microbiology, 2023).
Like-named read-outs stand apart in the source and are kept apart here.

Columns and labels:
[1] = target: T1, HIV-1 RT-associated RNase H (Human immunodeficiency virus type 1 group M subtype B, UniProt P04585); assay: HIV-1 DNA polymerase-independent RNase H activity determination; type: biochemical; details: wt HIV-1 RT; three independent experiments, average ± standard deviation; read-out: RNase H IC50
T1 construct: The 1:1 ratio between the p66/p51 subunits was also verified; His tag (implied only by Ni-NTA IMAC purification); made in house; host or cells: Escherichia coli M15
Procedure: Escherichia coli strain M15 containing the p6HRT-prot vector (provided by Stuart Le Grice laboratory (NCI Frederick)) was grown to an optical density at 600 nm of 0.7 and induced with 1.7 mM of isopropyl β-D-1-thiogalactopyranoside (IPTG) for 4 h. Protein purification was carried out with a BioLogic LP system (Bio-Rad, Hercules, CA, USA) using a combination of immobilized metal affinity chromatography (IMAC) and ion exchange chromatography. Cell pellets were resuspended in lysis buffer (50 mM of sodium phosphate buffer, pH 7.8, containing 0.5 mg/mL of lysozyme), incubated on ice for 20 min, and, after the addition of NaCl to a final concentration of 0.3 M, were sonicated and centrifuged at 30,000 ×g for 1 h. The supernatant was loaded onto a Ni^2+-NTA-Sepharose column pre-equilibrated with loading buffer (50 mM of sodium phosphate buffer, pH 7.8, containing 0.3 M of NaCl, 10% glycerol, and 10 mM of imidazole) and washed thoroughly with wash buffer (50 mM of sodium phosphate buffer, pH 6.0, containing 0.3 M of NaCl, 10% glycerol, and 80 mM of imidazole). RT was eluted with an imidazole gradient in the wash buffer (0–0.5 M). Fractions were collected, and protein purity was checked by sodium dodecyl sulfate–polyacrylamide gel electrophoresis (SDS-PAGE) and found to be higher than 90%. The 1:1 ratio between the p66/p51 subunits was also verified. Enzyme-containing fractions were pooled and diluted 1:1 with 50 mM of sodium phosphate buffer, pH 7.0, containing 10% glycerol, and then loaded into a Hi-trap heparin HP GE (Healthcare LifeScience) pre-equilibrated with 10 column volumes of loading buffer (50 mM of sodium phosphate buffer, pH 7.0, containing 10% glycerol, and 150 mM of NaCl). The column was then washed with loading buffer, and the RT was eluted with Elute Buffer 2 (50 mM of sodium phosphate, pH 7.0, 10% glycerol, 1 M of NaCl). Fractions were collected, and the protein was dialyzed and stored in a buffer containing 50 mM of Tris-HCl, pH 7.0, 25 mM of NaCl, 1 mM of EDTA, and 50% glycerol. Catalytic activities and protein concentrations were determined. Enzyme-containing fractions were pooled, and aliquots were stored at −80°C.
(§1) HIV RT-associated RNase H activity was measured as described ([Corona et al., 2016b]) in a 100-µl reaction volume containing 50 mM of Tris-HCl buffer, pH 7.8, 6 mM of MgCl2, 1 mM of dithiothreitol (DTT), 80 mM of KCl, 0.25 µM of hybrid RNA/DNA 5′-[…]-Fluorescin-3′ (high-performance liquid chromatography (HPLC), dry, QC: Mass Check) (available from Metabion) 5′-Dabcyl-[…]-3′ (HPLC, dry, QC: Mass Check), increasing concentrations of inhibitors, whose dilution were made in water, and different amounts of enzymes according to a linear range of the dose–response curve. The reaction mixture was incubated for 1 h at 37°C and stopped by the addition of EDTA, and products were measured with a multilabel counter plate reader Victor 3 equipped with filters for 490/528 nm.

[2] = system: HIV-1; assay: HIV-1 replication inhibition in MT4 cells; type: cell-based; details: three independent experiments, average ± standard deviation, read-out: HIV-1 EC50
Procedure: HIV-1 replication was carried out in MT4 cells as previously reported ([Corona et al., 2016a]) using a molecular clone derived from the pNL4-3 ([Thierry et al., 2015]). A total of 120 ng of p24^gag antigen per 10^6 cells, corresponding to a multiplicity of infection (m.o.i.) of 0.3, was used for infection. […] Flow cytometry analysis was performed on a FACSCalibur flow cytometer (BD Biosciences, San Jose, CA, USA), and the results were analyzed using the […] software.

[3] = target: T2, HIV-1 IN-LEDGF binding (Human immunodeficiency virus type 1 group M subtype B, UniProt P12497); assay: biochemical
T2 construct: Preparation of recombinant full-length IN and LEDGF proteins; made in house; host or cells: E. coli BL21(DE3)
Procedure: (§2) Proteins were expressed in E. coli BL21(DE3). Briefly, His-IN was purified by loading the precipitate of cell lysate onto a Ni-Sepharose column and eluting with a […] imidazole gradient (0–500 mM) in a HEPES buffer (50 mM, pH 7.5) containing NaCl (1 M), CHAPS (7.5 mM), and β-mercaptoethanol (2 mM). FLAG-IN was purified by loading the precipitate of cell lysate onto a phenyl-sepharose and ammonium sulfate gradient (0–800 mM) in a HEPES (pH 7.5, 50 mM) buffer containing NaCl (200 mM), CHAPS (7.5 mM), and β-mercaptoethanol (2 mM). Peak fractions were pooled, loaded onto a heparin column, and eluted with an increasing NaCl gradient (200 mM to 1 M) in a HEPES (pH 7.5, 50 mM) buffer containing CHAPS (7.5 mm) and β-mercaptoethanol (2 mM). Fractions containing integrase were pooled and stored in glycerol (10%) at −80°C.
Briefly, His-IN was preincubated with different concentrations of a compound in a buffer containing NaCl (150 mm), MgCl2 (2 mM), Nonidet P-40 (0.1%), BSA (1 mg/ml), and Tris (pH 7.4, 25 mm) for 30 min at room temperature. Then, FLAG-LEDGF was added to the reaction mixture, and a mixture of anti-His6-XL665 and anti-FLAG-EuCryptate antibodies was added.

[4] = target: T3, HIV-1 IN (LEDGF-independent) (Human immunodeficiency virus type 1 group M subtype B, UniProt P12497); assay: biochemical; details: strand-transfer activity with omission of LEDGF/p75; read-out: IC50 IN LEDGF-independent integration
T3 construct: Preparation of recombinant full-length IN and LEDGF proteins; made in house; host or cells: E. coli BL21(DE3)
Procedure: as §2
Briefly, IN (50 nM) was preincubated with increasing concentrations of compounds for 1 h at room temperature in a reaction buffer containing HEPES (20 mM, pH 7.5), DTT (1 mM), glycerol (1%), MgCl2 (20 mM), Brij-35 (0.05%), and bovine serum albumin (BSA) (0.1 mg/ml).

[5] = system: HIV-1 RTs bearing K103N, Y181C, and Y188L (RNase H); assay: RNase H activity of HIV-1 RTs bearing K103N, Y181C and Y188L substitutions; type: biochemical; details: all cases
Procedure: K103N, Y181C, and Y188L mutations were introduced into the p6HRT-prot vector using the QuikChange protocol (Agilent Technologies, Santa Clara, CA, USA). Enzymes were expressed and purified as the wt-HIV-1 RT.
as §1

[6] = Human immunodeficiency virus 1, MT4, viral replication in MT4 cells

SMILES	IC50 [1] [µM]	EC50 [2, 6] [µM]	EC50 ([2]; viral replication in MT4 cells) [µM]	IC50 [3] [µM]	IC50 [4] [µM]	increase in IC50 values vs wt RT, RNase H function [5]	IC50 IN/LEDGF binding [3]
O=C1Nc2ccc(Cl)cc2/C1=N/Nc1nc(-c2ccc(Cl)c(Cl)c2)cs1 [9b]	8.8 ± 1.3	< 20	13.2 ± 3.7	> 100	> 100	less than threefold	
Cc1ccc(-c2csc(N/N=C3\C(=O)Nc4ccc([N+](=O)[O-])cc43)n2)cc1 [10a]	8.5 ± 0.5	< 20	15.8 ± 1.8	> 100	35.5 ± 1.5	less than threefold	without interfering with the binding of LEDGF
